Data: publication PMC10023787, “Trio-pharmacophore DNA-encoded chemical library for simultaneous selection of fragments and linkers” (Nature Communications, 2023)
“And” between values parts separate entries of the source, which are not always exact repeats. Equal entries are not always repeated.

What was measured:
[1] = target: T1, MMP-9 (Homo sapiens, UniProt P14780); assay: MMP-9 inhibition assay (fluorogenic peptide substrate); assay type: biochemical; parameters: remaining enzyme activity (% of control): scale not given here; details: for IC50: mean ± SE, n.d: not detected, Fig. 5e prints no unit, µM, read-out: IC50
T1 construct: purchased Sino Biological 10327-HNAH
T1 sequence (P14780 107-707 limits assumed): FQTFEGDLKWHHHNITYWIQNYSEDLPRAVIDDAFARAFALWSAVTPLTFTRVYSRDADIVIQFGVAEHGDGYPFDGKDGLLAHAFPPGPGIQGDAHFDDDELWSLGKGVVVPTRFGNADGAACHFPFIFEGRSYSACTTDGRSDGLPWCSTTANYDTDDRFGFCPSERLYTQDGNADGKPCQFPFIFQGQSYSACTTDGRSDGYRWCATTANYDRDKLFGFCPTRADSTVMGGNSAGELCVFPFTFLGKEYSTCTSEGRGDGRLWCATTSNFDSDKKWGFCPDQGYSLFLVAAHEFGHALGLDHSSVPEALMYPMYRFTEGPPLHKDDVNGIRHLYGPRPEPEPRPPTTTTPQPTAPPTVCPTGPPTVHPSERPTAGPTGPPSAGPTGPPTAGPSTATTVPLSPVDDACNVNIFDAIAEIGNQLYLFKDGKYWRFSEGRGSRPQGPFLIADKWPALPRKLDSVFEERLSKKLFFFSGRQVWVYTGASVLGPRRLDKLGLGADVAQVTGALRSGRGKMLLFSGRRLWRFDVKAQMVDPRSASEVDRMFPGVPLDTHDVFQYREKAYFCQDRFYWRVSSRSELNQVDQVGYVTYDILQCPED
Procedure, shortened: (§1)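 Human proMMP-2 and proMMP-9 were activated with 1 mM APMA for 2 h at 37 °C, then used at 6.5 nM (MMP-2) or 10 nM (MMP-9) final in Tris/NaCl/CaCl2/Brij 35 buffer, pH 7.5. After 30 min preincubation with compound at RT, 25 μM FRET peptide substrate was added and fluorescence (ex 280/em 360 nm) followed for 30 min. IC50 came from logistic fits of Vmax.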

[2] = target: T2, MMP-2 (Homo sapiens, UniProt P08253); assay: MMP-2 inhibition assay (fluorogenic peptide substrate); assay type: biochemical; details: for IC50: mean ± SE, n.d: not detected, Fig. 5d unit inferred, µM, read-out: IC50
T2 construct: purchased Sino Biological 10082-HNAH
T2 sequence (P08253 110-660): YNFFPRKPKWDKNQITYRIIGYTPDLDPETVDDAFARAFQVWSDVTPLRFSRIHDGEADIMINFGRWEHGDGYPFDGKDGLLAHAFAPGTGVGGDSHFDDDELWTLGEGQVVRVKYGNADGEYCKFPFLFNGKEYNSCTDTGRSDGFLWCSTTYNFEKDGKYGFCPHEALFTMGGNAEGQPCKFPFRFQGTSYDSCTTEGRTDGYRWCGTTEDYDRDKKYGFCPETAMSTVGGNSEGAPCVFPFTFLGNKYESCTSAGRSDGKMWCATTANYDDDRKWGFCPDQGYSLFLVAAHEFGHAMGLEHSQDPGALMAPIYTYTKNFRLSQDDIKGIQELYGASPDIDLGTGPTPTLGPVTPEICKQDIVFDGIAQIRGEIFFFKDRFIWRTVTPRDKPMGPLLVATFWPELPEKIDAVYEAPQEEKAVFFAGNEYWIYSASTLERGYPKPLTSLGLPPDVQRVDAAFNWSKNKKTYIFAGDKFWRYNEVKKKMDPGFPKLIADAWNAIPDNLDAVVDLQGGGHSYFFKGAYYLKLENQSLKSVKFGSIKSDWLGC
Procedure, shortened: as §1

[3] = MMP-9, concentration 1219.00 µM
[4] = MMP-2, concentration 1219.00 µM

Row | SMILES | remaining enzyme activity (% of control) ([1]; MMP-9, concentration 0.12 µM) | remaining enzyme activity (% of control) ([1]; MMP-9, concentration 0.49 µM) | remaining enzyme activity (% of control) ([1]; MMP-9, concentration 1.95 µM) | remaining enzyme activity (% of control) ([1]; MMP-9, concentration 7.81 µM) | remaining enzyme activity (% of control) ([1]; MMP-9, concentration 31.25 µM) | remaining enzyme activity (% of control) ([1]; MMP-9, concentration 125.00 µM) | remaining enzyme activity (% of control) ([1]; MMP-9, concentration 500.00 µM) | remaining activity (%) ([2]; MMP-2, concentration 0.12 µM) | remaining activity (%) ([2]; MMP-2, concentration 0.49 µM) | remaining activity (%) ([2]; MMP-2, concentration 1.95 µM) | remaining activity (%) ([2]; MMP-2, concentration 7.81 µM) | remaining activity (%) ([2]; MMP-2, concentration 31.25 µM) | remaining activity (%) ([2]; MMP-2, concentration 125.00 µM) | remaining activity (%) ([2]; MMP-2, concentration 500.00 µM) | IC50 [1] | IC50 [2] | remaining enzyme activity (% of control) ([1]; MMP-9, concentration 0.08 µM) | remaining activity (%) ([2]; MMP-2, concentration 0.08 µM) | further results
1 | Cc1cc(=O)[nH]c(-n2nc(C)c(CCC(=O)NCCNC(=O)c3cnc4c(c3)nc(O)n4C)c2C)n1 [693+826 Linker 1] | 100.10 | 107.84 | 98.21 | 95.90 | 93.30 | 76.07 | 54.11 | 100.61 | 101.27 | 97.44 | 105.49 | 103.49 | 92.36 | 84.19 | – | – | – | – | –
2 | Cc1cc(=O)[nH]c(-n2nc(C)c(CCC(=O)NCCCCCCCCNC(=O)c3cnc4c(c3)nc(O)n4C)c2C)n1 [693+826 Linker 4] | 100.31 | 99.68 | 96.18 | 93.00 | 90.00 | 80.00 | 69.08 | 91.52 | 100.66 | 95.29 | 98.79 | 92.06 | 94.34 | 70.32 | – | – | – | – | –
3 | Cc1cc(=O)[nH]c(-n2nc(C)c(CCC(=O)NCCOCCOCCNC(=O)c3cnc4c(c3)nc(O)n4C)c2C)n1 [693+826 Linker 10] | 93.04 | 87.11 | 89.00 | 87.83 | 75.00 | 69.92 | 55.88 | 88.40 | 91.73 | 91.10 | 90.16 | 89.04 | 84.64 | 68.06 | – | – | – | – | –
4 | Cc1cc(=O)[nH]c(-n2nc(C)c(CCC(=O)NCCNC(=O)CC(=O)C=CCCCCNC(=O)c3cnc4c(c3)nc(O)n4C)c2C)n1 [693+826 Linker 12] | 100.00 | 80.27 | 83.12 | 88.09 | 65.00 | 27.22 | 12.87 | 103.13 | 90.37 | 90.36 | 93.51 | 77.90 | 65.75 | 29.31 | 58.9 ± 10.5 µM | 210 ± 35.3 µM | – | – | –
5 | Cc1cc(=O)[nH]c(-n2nc(C)c(CCC(=O)NCCSCC(=O)NCCNC(=O)c3cnc4c(c3)nc(O)n4C)c2C)n1 [693+826 Linker 24] | 99.26 | 96.54 | 94.32 | 95.86 | 95.02 | 70.00 | 41.34 | 98.54 | 94.49 | 93.80 | 81.11 | 77.57 | 58.31 | 52.30 | 358 ± 114 µM | 417 ± 50.3 µM | – | – | –
6 | Cc1cc(=O)[nH]c(-n2nc(C)c(CCC(=O)NCCNC(=O)c3cncc(O)c3)c2C)n1 [693+828 Linker 1] | – | – | – | – | – | – | – | – | – | – | – | – | – | – | 232 ± 35.2 µM | 110 ± 13.3 µM | 98.15 | 86.73 | remaining enzyme activity (% of control) ([1]; MMP-9, concentration 0.38 µM): 101.08; remaining enzyme activity (% of control) ([1]; MMP-9, concentration 1.91 µM): 93.24; remaining enzyme activity (% of control) ([1]; MMP-9, concentration 9.54 µM): 99.31; remaining enzyme activity (% of control) ([1]; MMP-9, concentration 47.72 µM): 78.04; remaining enzyme activity (% of control) ([1]; MMP-9, concentration 238.60 µM): 51.23; remaining enzyme activity (% of control) ([1]; MMP-9, concentration 1193.00 µM): 4.04; remaining activity (%) ([2]; MMP-2, concentration 0.0153 µM): 92.49; remaining activity (%) ([2]; MMP-2, concentration 0.38 µM): 90.73; remaining activity (%) ([2]; MMP-2, concentration 1.91 µM): 83.36; remaining activity (%) ([2]; MMP-2, concentration 9.54 µM): 76.57; remaining activity (%) ([2]; MMP-2, concentration 47.72 µM): 66.74; remaining activity (%) ([2]; MMP-2, concentration 238.60 µM): 28.54; remaining activity (%) ([2]; MMP-2, concentration 1193.00 µM): 3.05
7 | Cc1cc(=O)[nH]c(-n2nc(C)c(CCC(=O)NCCCCCCCCNC(=O)c3cncc(O)c3)c2C)n1 [693+828 Linker 4] | – | – | 90.34 | – | – | – | – | – | – | 99.37 | – | – | – | – | 261 ± 31.3 µM | 212 ± 15.9 µM | 97.75 | 100.17 | remaining enzyme activity (% of control) ([1]; MMP-9, concentration 0.39 µM): 94.18; remaining enzyme activity (% of control) ([1]; MMP-9, concentration 9.75 µM): 92.01; remaining enzyme activity (% of control) ([1]; MMP-9, concentration 48.76 µM): 87.31; remaining enzyme activity (% of control) ([1]; MMP-9, concentration 243.80 µM): 52.96; remaining enzyme activity (% of control) [1, 3]: 7.04; remaining activity (%) ([2]; MMP-2, concentration 0.0156 µM): 102.68; remaining activity (%) ([2]; MMP-2, concentration 0.39 µM): 95.94; remaining activity (%) ([2]; MMP-2, concentration 9.75 µM): 100.31; remaining activity (%) ([2]; MMP-2, concentration 48.76 µM): 87.56; remaining activity (%) ([2]; MMP-2, concentration 243.80 µM): 44.10; remaining activity (%) [2, 4]: 12.13
8 | Cc1cc(=O)[nH]c(-n2nc(C)c(CCC(=O)NCCOCCOCCNC(=O)c3cncc(O)c3)c2C)n1 [693+828 Linker 10] | – | – | 97.73 | – | – | – | – | – | – | 93.57 | – | – | – | – | 201 ± 21.3 µM | 186 ± 15.7 µM | 97.89 | 88.67 | remaining enzyme activity (% of control) ([1]; MMP-9, concentration 0.39 µM): 99.26; remaining enzyme activity (% of control) ([1]; MMP-9, concentration 9.75 µM): 98.89; remaining enzyme activity (% of control) ([1]; MMP-9, concentration 48.76 µM): 84.90; remaining enzyme activity (% of control) ([1]; MMP-9, concentration 243.80 µM): 42.77; remaining enzyme activity (% of control) [1, 3]: 10.96; remaining activity (%) ([2]; MMP-2, concentration 0.0156 µM): 88.17; remaining activity (%) ([2]; MMP-2, concentration 0.39 µM): 96.33; remaining activity (%) ([2]; MMP-2, concentration 9.75 µM): 94.74; remaining activity (%) ([2]; MMP-2, concentration 48.76 µM): 85.76; remaining activity (%) ([2]; MMP-2, concentration 243.80 µM): 33.24; remaining activity (%) [2, 4]: 9.64
9 | Cc1cc(=O)[nH]c(-n2nc(C)c(CCC(=O)NCCNC(=O)CC(=O)/C=C/CCCCNC(=O)c3cncc(O)c3)c2C)n1 [693+828 Linker 12] | – | – | – | – | – | – | – | – | – | – | – | – | – | – | 14.8 µM and 15 µM | 10 µM | – | – | remaining activity at 0.04 µM ([1]; MMP-9, concentration 0.04 µM, read-out: Mean (MMP-9 dose-response, Supplementary fig 15)): 95.5%; remaining activity at 0.21 µM ([1]; MMP-9, concentration 0.21 µM, read-out: Mean (MMP-9 dose-response, Supplementary fig 15)): 89%; remaining activity at 1.04 µM ([1]; MMP-9, concentration 1.04 µM, read-out: Mean (MMP-9 dose-response, Supplementary fig 15)): 89.5%; remaining activity at 5.19 µM ([1]; MMP-9, concentration 5.19 µM, read-out: Mean (MMP-9 dose-response, Supplementary fig 15)): 71.7%; remaining activity at 25.96 µM ([1]; MMP-9, concentration 25.96 µM, read-out: Mean (MMP-9 dose-response, Supplementary fig 15)): 32.6%; remaining activity at 129.8 µM ([1]; MMP-9, concentration 129.80 µM, read-out: Mean (MMP-9 dose-response, Supplementary fig 15)): 0%; remaining activity at 649 µM ([1]; MMP-9, concentration 649.00 µM, read-out: Mean (MMP-9 dose-response, Supplementary fig 15)): 0%; remaining activity at 0.00831 µM ([2]; MMP-2, concentration 0.00831 µM, read-out: Mean (MMP-2 dose-response, Supplementary fig 15)): 95.7%; remaining activity at 0.04 µM ([2]; MMP-2, concentration 0.04 µM, read-out: Mean (MMP-2 dose-response, Supplementary fig 15)): 92.8%; remaining activity at 0.21 µM ([2]; MMP-2, concentration 0.21 µM, read-out: Mean (MMP-2 dose-response, Supplementary fig 15)): 86.2%; remaining activity at 1.04 µM ([2]; MMP-2, concentration 1.04 µM, read-out: Mean (MMP-2 dose-response, Supplementary fig 15)): 77.4%; remaining activity at 5.19 µM ([2]; MMP-2, concentration 5.19 µM, read-out: Mean (MMP-2 dose-response, Supplementary fig 15)): 60.2%; remaining activity at 25.96 µM ([2]; MMP-2, concentration 25.96 µM, read-out: Mean (MMP-2 dose-response, Supplementary fig 15)): 25.3%; remaining activity at 129.8 µM ([2]; MMP-2, concentration 129.80 µM, read-out: Mean (MMP-2 dose-response, Supplementary fig 15)): 0%; remaining activity at 649 µM ([2]; MMP-2, concentration 649.00 µM, read-out: Mean (MMP-2 dose-response, Supplementary fig 15)): 0%
